# Source: patent US20190142835A1, “INHIBITION OF AUTOPHAGY USING PHOSPHOLIPASE A2 INHIBITORS” (OREGON HEALTH & SCIENCE UNIVERSITY, priority 2017, published 2019)
# Assays:
# [1] = system: human RCC and MPN cell lines; assay: Growth effect of treatment in RCC and MPN cell lines; type: cell-based; conditions: multiple human RCC and MPN cell lines
# ACHN cells [2] = assay: Redox homeostasis (p-AMPK, NADPH, GSSG/GSH, ROS); type: cell-based, human; conditions: 2 μM CYT387, 10 μM MK2206, 24 hr
# Description: ROS levels were measured with Cellrox Deep Red (Molecular Probes). Cell were plated in a 96 well clear bottom with black sides cell culture plate. […] The complete media+drug was removed after 24 hours and replaced with 5 μM of Cellrox Deep Red in media. Cells were incubated for 30 min at 370 C then washed with PBS. Fluorescence signal was detected using a Bioteck Cytation 5 plate reader. Data was analyzed using Prism software.
# ACHN xenografts = assay: ACHN xenograft study; type: in vivo
# Description: (§1) 6-week old mice were utilized for human renal cell carcinoma xenografts. For both ACHN and SN12C cell lines 2×10^6 cells were diluted in 50 μl of PBS and 50 μl of Matrigel (BD Biosciences) and were injected subcutaneously into the right and left flank of each mouse. Tumors were monitored until they reached an average size of 50-80 mm3 (approximately 2 weeks), at which point treatments were begun. […] MK2206 (60 mg/kg/day) were administered by oral gavage 2-3 day/week. […] Tumors and mouse weights were measured twice weekly. At least 6-8 mice per treatment group were included. All mice were euthanized using CO2 inhalation followed by cervical dislocation per institutional guidelines at Oregon Health and Science University. Experiments were approved by the Institutional Animal Care and Use Committee at OHSU.
# (§2) Immunostaining was performed following deparaffinization and rehydration of slides. Antigen retrieval was performed in a pressure cooker using citrate buffer (pH 6.0) for 4 min. Nonspecific binding was blocked using Vector mouse IgG blocking serum 30 min at room temperature. Samples were incubated at room temperature with rabbit monoclonal antibodies pS6 (CST #5364) cleaved caspase 3 (CST#9661), and Ki67 (Dako#M7240).
# (§3) Slides were developed with Vector Immpress rabbit IgG (#MP7401) and Vector Immpress mouse IgG (#MP7400) for 30 min at room temperature. Chromogenic detection was performed using Vector Immpact DAB (#SK4105) for 3 min. Slides were counterstained with hematoxylin. A 3DHistech MIDI Scanner (Perkin Elmer) was used to capture whole slide digital images with a 20× objective. Images were converted to into MRXS files and computer graphic analysis was completed using inForm 1.4.0 Advanced Image Analysis Software (Perkin Elmer).
# Mouse tumor size was analyzed by 2-way ANOVA with time and drug as factors, using GraphPad Prism. Mouse weight during treatment was analyzed by repeated measures 2-way ANOVA, with time and drug as factors. A P value less than 0.05 was considered statistically significant. Immunohistochemistry: P-values were calculated using one-way ANOVA, with Bonferroni's multiple comparison test. * denotes P<0.05, ** denotes P<0.01, and *** denotes P<0.001 throughout this disclosure. Metabolite fold-changes were computed and visualized in Python script, using the openpyxl package (for importing Excel files) and the matplotlib package (for visualizing fold changes).
# [3] = system: human RCC cells (ACHN and SN12C); assay: Phosphoproteomics screen and kinase substrate enrichment analysis; type: cell-based; conditions: phosphoproteome
# Description: Enriched phospho-peptides were digested with trypsin and analyzed by mass spectroscopy following the published “Cell Signaling Technology” protocol.
# MS raw files were analyzed via MaxQuant version 1.5.3.30 [73] and MS/MS fragmentation spectra were searched using Andromeda against human canonical and isoform sequences in Swiss-Prot (downloaded in September 2016 from http://uniprot.org). Quantitative phosphopeptide data were log10 transformed and missing data were imputed before applying quantile normalization as previously described. Hierarchical clustering was performed on the Cluster 3.0 program, using distance that is based on the Pearson correlation and applying pairwise average linkage analysis. Java Treeview was used to visualize clustering results.
# Kinase substrate enrichment analysis (KSEA) was performed as previously described. […] Permutation analysis was conducted to calculate statistical significance. The normalized enrichment score was calculated by dividing the enrichment score by the average of the absolute values of all enrichment scores from the permutation analysis.
# [4] = system: Atg5+/+ murine embryonic fibroblasts; assay: Lipid droplet number in Atg5+/+ MEFs; type: cell-based, mouse; conditions: 24 hr
# Description: (§4) Cells were grown on coverslips then treated with drug for 24 hours. Cells were fixed in 4% paraformaldehyde for 15 min, rinsed with PBS. Cells were washed with a 1% saponin solution for 15 min at room temperature then washed several times in PBS to remove detergent. Cells were then incubated in Bodipy (ThermoFisher #D3922) at a final concentration of 1 uM for 10 min. Bodipy was removed and slides were rinsed with PBS then air dried and mounted on slides using Dako mounting media with Dapi.
# [5] = system: mouse embryo fibroblasts (MEFs) Atg5+/+; assay: Autophagy induction (lipidation of LC3) in Atg5+/+ MEFs; type: cell-based
# [6] = system: Atg5−/− murine embryonic fibroblasts; assay: Lipid droplet number in Atg5−/− MEFs; type: cell-based, mouse; conditions: ATG5 deficient, 24 hr
# Description: as §4
# ACHN cells [7] = assay: Apoptosis (Caspase 3/7-Glo), ACHN; type: cell-based, human; conditions: ACHN, 72 h
# Description: (§5) Apoptosis was determined using Caspase 3/7-Glo assay kit (Promega) following the manufacturer's instructions. Briefly, 2000 cells per well were plated in 96 well plates and cultured for 72 h. […] Caspase 3/7 activity was measured using a luminometer. Luminescence values were normalized by cell numbers.
# SN12C xenografts = assay: SN12C xenograft study; type: in vivo
# Description: as §1, §2
# as §3, with “Images were converted to into MRXS files and computer graphic analysis was completed using inForm 1.4.0 Advanced Image Analysis Software (Perkin Elmer).” left out
# Mouse tumor size was analyzed by 2-way ANOVA with time and drug as factors, using GraphPad Prism. Mouse weight during treatment was analyzed by repeated measures 2-way ANOVA, with time and drug as factors. […] Immunohistochemistry: P-values were calculated using one-way ANOVA, with Bonferroni's multiple comparison test. * denotes P<0.05, ** denotes P<0.01, and *** denotes P<0.001 throughout this disclosure. […]
# glycolysis = assay: Glucose uptake and lactate excretion as readouts for glycolysis; type: cell-based, human; conditions: in vitro
# Description: The PI3K-AKT-mTOR pathway regulates multiple steps in glucose uptake and metabolism.
# SN12C cells = assay: Apoptosis (Caspase 3/7-Glo), SN12C; type: cell-based, human; conditions: 72 h
# Description: as §5
# MPN patients = conditions: human, in vivo; cited from earlier work
# ACHN cells [8] = assay: Transcriptomic analysis with gene set enrichment (GSEA); type: cell-based, human
compound,measurement,setting,value
N#CCNC(=O)c1ccc(-c2ccnc(Nc3ccc(N4CCOCC4)cc3)n2)cc1 [CYT387],effect of treatment on cell growth,[1],primarily cytostatic
same,NADPH levels,ACHN cells [2],increases NADPH levels
same,ROS,ACHN cells [2],mitigates ROS
same,p-AMPK,ACHN cells [2],activates p-AMPK
same,apoptosis (cleaved-caspase3) in tumors,ACHN xenografts; ACHN xenograft tumors,minimal impact on apoptosis
same,antitumor effect of single agent,"ACHN xenografts; ACHN, CYT387 50 mg/kg/day or MK2206 60 mg/kg/day oral gavage",exhibited antitumor effect
same,number of adipophilin-positive LDs in tumors,"ACHN xenografts; treatment day 40, ACHN xenograft tumors, CYT387<MK2206<CYT387+MK2206, p=0.0046",significantly and incrementally increased
same,RICTOR phosphorylation,[3],hypophosphorylated at T^1135
same,STAT3 Y^705 phosphorylation,[3],trended towards hypophosphorylation of STAT3 Y^705
same,"TSC2 phosphorylation (T^1462, S^1798)",[3],hypophosphorylated at two inhibitory phosphoresidues
same,insulin receptor (INSR) Y^1189 phosphorylation,[3],hyperphosphorylation
same,ribosomal protein S6 (RPS6) phosphorylation,[3],trended towards hypophosphorylation
same,LD numbers,[4],significantly increase LD numbers
same,autophagy as seen by the lipidation of LC3,[5],induce autophagy in a dose dependent manner
same,lipid droplets,[6],no increase in lipid droplets
same,apoptosis (cleaved-caspase 3/7),ACHN cells [7],little or no effect on apoptosis
same,apoptosis (cleaved-caspase3) in tumors,SN12C xenografts; SN12C xenograft tumors,minimal impact on apoptosis
same,antitumor effect of single agent,"SN12C xenografts; SN12C, CYT387 50 mg/kg/day or MK2206 60 mg/kg/day oral gavage",exhibited antitumor effect
same,glucose uptake,glycolysis; 18FDG,significantly decreased glucose uptake
same,lactate production,glycolysis; culture media,reduced lactate production
same,apoptosis (cleaved-caspase 3/7),SN12C cells,little or no effect on apoptosis
same,clinical effect in MPN patients,MPN patients,improved splenomegaly and reduced anemia
same,expression of genes involved in glycolysis such as PFKB3 and HK2,ACHN cells [8],downregulated genes involved in glycolysis
